Test results: ChEMBL document CHEMBL6103592, “Discovery of novel thiazole-pleuromutilin derivatives with potent antibacterial activity” (Eur J Med Chem, 2025)
≈ marks a conversion by molar mass, not a printed value.

tested on: Enterococcus faecalis; experiment: Antibacterial activity against Enterococcus faecalis assessed as inhibition of visible bacterial growth incubated for 24 hrs by CLSI based broth microdilution method; format: functional

Row | Structure (SMILES) | MIC
1 | C=C[C@]1(C)C[C@@H](OC(=O)CSc2nc(OC(=O)c3ccc(Cl)cc3Cl)cs2)[C@]2(C)[C@H](C)CC[C@]3(CCC(=O)[C@H]32)[C@@H](C)[C@@H]1O | > 32 µg/mL
2 | C=C[C@]1(C)C[C@@H](OC(=O)CSc2nc(OC(=O)C(CC)CCCC)cs2)[C@]2(C)[C@H](C)CC[C@]3(CCC(=O)[C@H]32)[C@@H](C)[C@@H]1O (some centres not stated) | > 32 µg/mL
3 | C=C[C@]1(C)C[C@@H](OC(=O)CSc2nc(OC(=O)c3ccccc3C)cs2)[C@]2(C)[C@H](C)CC[C@]3(CCC(=O)[C@H]32)[C@@H](C)[C@@H]1O | > 32 µg/mL
4 | C=C[C@]1(C)C[C@@H](OC(=O)CSc2nc(OC(=O)CC(C)(C)C)cs2)[C@]2(C)[C@H](C)CC[C@]3(CCC(=O)[C@H]32)[C@@H](C)[C@@H]1O | > 32 µg/mL
5 | C=C[C@]1(C)C[C@@H](OC(=O)CSc2nc(OC(=O)C3CCCC3)cs2)[C@]2(C)[C@H](C)CC[C@]3(CCC(=O)[C@H]32)[C@@H](C)[C@@H]1O | > 32 µg/mL
6 | C=C[C@]1(C)C[C@@H](OC(=O)CSc2nc(OC(=O)C3CC3)cs2)[C@]2(C)[C@H](C)CC[C@]3(CCC(=O)[C@H]32)[C@@H](C)[C@@H]1O | > 32 µg/mL
7 | C=C[C@]1(C)C[C@@H](OC(=O)CSc2nc(OC(=O)c3c(Cl)cc(Cl)cc3Cl)cs2)[C@]2(C)[C@H](C)CC[C@]3(CCC(=O)[C@H]32)[C@@H](C)[C@@H]1O | > 32 µg/mL

tested on: Mycoplasma; experiment: Antibacterial activity against Mycoplasma F3 assessed as inhibition of visible bacterial growth incubated for 24 hrs by CLSI based broth microdilution method; format: functional

Row | Structure (SMILES) | MIC
8 | C=C[C@]1(C)C[C@@H](OC(=O)CSc2nc(OC(=O)c3ccc(Cl)cc3Cl)cs2)[C@]2(C)[C@H](C)CC[C@]3(CCC(=O)[C@H]32)[C@@H](C)[C@@H]1O | 0.5 µg/mL (≈ 0.75 µM)
9 | C=C[C@]1(C)C[C@@H](OC(=O)CSc2nc(OC(=O)C(CC)CCCC)cs2)[C@]2(C)[C@H](C)CC[C@]3(CCC(=O)[C@H]32)[C@@H](C)[C@@H]1O (some centres not stated) | 0.5 µg/mL (≈ 0.807 µM)
10 | C=C[C@]1(C)C[C@@H](OC(=O)CSc2nc(OC(=O)c3ccccc3C)cs2)[C@]2(C)[C@H](C)CC[C@]3(CCC(=O)[C@H]32)[C@@H](C)[C@@H]1O | 1 µg/mL (≈ 1.63 µM)
11 | C=C[C@]1(C)C[C@@H](OC(=O)CSc2nc(OC(=O)CC(C)(C)C)cs2)[C@]2(C)[C@H](C)CC[C@]3(CCC(=O)[C@H]32)[C@@H](C)[C@@H]1O | 0.25 µg/mL (≈ 0.422 µM)
12 | C=C[C@]1(C)C[C@@H](OC(=O)CSc2nc(OC(=O)C3CCCC3)cs2)[C@]2(C)[C@H](C)CC[C@]3(CCC(=O)[C@H]32)[C@@H](C)[C@@H]1O | 0.25 µg/mL (≈ 0.424 µM)
13 | C=C[C@]1(C)C[C@@H](OC(=O)CSc2nc(OC(=O)C3CC3)cs2)[C@]2(C)[C@H](C)CC[C@]3(CCC(=O)[C@H]32)[C@@H](C)[C@@H]1O | 0.25 µg/mL (≈ 0.445 µM)
14 | C=C[C@]1(C)C[C@@H](OC(=O)CSc2nc(OC(=O)c3c(Cl)cc(Cl)cc3Cl)cs2)[C@]2(C)[C@H](C)CC[C@]3(CCC(=O)[C@H]32)[C@@H](C)[C@@H]1O | 1 µg/mL (≈ 1.43 µM)

tested on: Escherichia coli; experiment: Antibacterial activity against Escherichia coli ATCC 25922 assessed as inhibition of visible bacterial growth incubated for 24 hrs by CLSI based broth microdilution method; format: functional

Row | Structure (SMILES) | MIC
15 | C=C[C@]1(C)C[C@@H](OC(=O)CSc2nc(OC(=O)c3ccc(Cl)cc3Cl)cs2)[C@]2(C)[C@H](C)CC[C@]3(CCC(=O)[C@H]32)[C@@H](C)[C@@H]1O | > 32 µg/mL
16 | C=C[C@]1(C)C[C@@H](OC(=O)CSc2nc(OC(=O)C(CC)CCCC)cs2)[C@]2(C)[C@H](C)CC[C@]3(CCC(=O)[C@H]32)[C@@H](C)[C@@H]1O (some centres not stated) | > 32 µg/mL
17 | C=C[C@]1(C)C[C@@H](OC(=O)CSc2nc(OC(=O)c3ccccc3C)cs2)[C@]2(C)[C@H](C)CC[C@]3(CCC(=O)[C@H]32)[C@@H](C)[C@@H]1O | > 32 µg/mL
18 | C=C[C@]1(C)C[C@@H](OC(=O)CSc2nc(OC(=O)CC(C)(C)C)cs2)[C@]2(C)[C@H](C)CC[C@]3(CCC(=O)[C@H]32)[C@@H](C)[C@@H]1O | > 32 µg/mL
19 | C=C[C@]1(C)C[C@@H](OC(=O)CSc2nc(OC(=O)C3CCCC3)cs2)[C@]2(C)[C@H](C)CC[C@]3(CCC(=O)[C@H]32)[C@@H](C)[C@@H]1O | > 32 µg/mL
20 | C=C[C@]1(C)C[C@@H](OC(=O)CSc2nc(OC(=O)C3CC3)cs2)[C@]2(C)[C@H](C)CC[C@]3(CCC(=O)[C@H]32)[C@@H](C)[C@@H]1O | > 32 µg/mL
21 | C=C[C@]1(C)C[C@@H](OC(=O)CSc2nc(OC(=O)c3c(Cl)cc(Cl)cc3Cl)cs2)[C@]2(C)[C@H](C)CC[C@]3(CCC(=O)[C@H]32)[C@@H](C)[C@@H]1O | > 32 µg/mL

tested on: Staphylococcus aureus; experiment: Antibacterial activity against Staphylococcus aureus ATCC 25923 assessed as inhibition of visible bacterial growth incubated for 24 hrs by CLSI based broth microdilution method; format: functional

Row | Structure (SMILES) | MIC
22 | C=C[C@]1(C)C[C@@H](OC(=O)CSc2nc(OC(=O)c3ccc(Cl)cc3Cl)cs2)[C@]2(C)[C@H](C)CC[C@]3(CCC(=O)[C@H]32)[C@@H](C)[C@@H]1O | 2 µg/mL (≈ 3 µM)
23 | C=C[C@]1(C)C[C@@H](OC(=O)CSc2nc(OC(=O)C(CC)CCCC)cs2)[C@]2(C)[C@H](C)CC[C@]3(CCC(=O)[C@H]32)[C@@H](C)[C@@H]1O (some centres not stated) | 2 µg/mL (≈ 3.23 µM)
24 | C=C[C@]1(C)C[C@@H](OC(=O)CSc2nc(OC(=O)c3ccccc3C)cs2)[C@]2(C)[C@H](C)CC[C@]3(CCC(=O)[C@H]32)[C@@H](C)[C@@H]1O | 2 µg/mL (≈ 3.27 µM)
25 | C=C[C@]1(C)C[C@@H](OC(=O)CSc2nc(OC(=O)CC(C)(C)C)cs2)[C@]2(C)[C@H](C)CC[C@]3(CCC(=O)[C@H]32)[C@@H](C)[C@@H]1O | 0.5 µg/mL (≈ 0.845 µM)
26 | C=C[C@]1(C)C[C@@H](OC(=O)CSc2nc(OC(=O)C3CCCC3)cs2)[C@]2(C)[C@H](C)CC[C@]3(CCC(=O)[C@H]32)[C@@H](C)[C@@H]1O | 2 µg/mL (≈ 3.39 µM)
27 | C=C[C@]1(C)C[C@@H](OC(=O)CSc2nc(OC(=O)C3CC3)cs2)[C@]2(C)[C@H](C)CC[C@]3(CCC(=O)[C@H]32)[C@@H](C)[C@@H]1O | 1 µg/mL (≈ 1.78 µM)
28 | C=C[C@]1(C)C[C@@H](OC(=O)CSc2nc(OC(=O)c3c(Cl)cc(Cl)cc3Cl)cs2)[C@]2(C)[C@H](C)CC[C@]3(CCC(=O)[C@H]32)[C@@H](C)[C@@H]1O | 16 µg/mL (≈ 22.8 µM)

tested on: Staphylococcus aureus; experiment: Antibacterial activity against methicillin-resistant Staphylococcus aureus ATCC 43300 assessed as inhibition of visible bacterial growth incubated for 24 hrs by CLSI based broth microdilution method; format: functional

Row | Structure (SMILES) | MIC
29 | C=C[C@]1(C)C[C@@H](OC(=O)CSc2nc(OC(=O)c3ccc(Cl)cc3Cl)cs2)[C@]2(C)[C@H](C)CC[C@]3(CCC(=O)[C@H]32)[C@@H](C)[C@@H]1O | 0.5 µg/mL (≈ 0.75 µM)
30 | C=C[C@]1(C)C[C@@H](OC(=O)CSc2nc(OC(=O)C(CC)CCCC)cs2)[C@]2(C)[C@H](C)CC[C@]3(CCC(=O)[C@H]32)[C@@H](C)[C@@H]1O (some centres not stated) | 0.5 µg/mL (≈ 0.807 µM)
31 | C=C[C@]1(C)C[C@@H](OC(=O)CSc2nc(OC(=O)c3ccccc3C)cs2)[C@]2(C)[C@H](C)CC[C@]3(CCC(=O)[C@H]32)[C@@H](C)[C@@H]1O | 1 µg/mL (≈ 1.63 µM)
32 | C=C[C@]1(C)C[C@@H](OC(=O)CSc2nc(OC(=O)CC(C)(C)C)cs2)[C@]2(C)[C@H](C)CC[C@]3(CCC(=O)[C@H]32)[C@@H](C)[C@@H]1O | 0.5 µg/mL (≈ 0.845 µM)
33 | C=C[C@]1(C)C[C@@H](OC(=O)CSc2nc(OC(=O)C3CCCC3)cs2)[C@]2(C)[C@H](C)CC[C@]3(CCC(=O)[C@H]32)[C@@H](C)[C@@H]1O | 1 µg/mL (≈ 1.7 µM)
34 | C=C[C@]1(C)C[C@@H](OC(=O)CSc2nc(OC(=O)C3CC3)cs2)[C@]2(C)[C@H](C)CC[C@]3(CCC(=O)[C@H]32)[C@@H](C)[C@@H]1O | 0.5 µg/mL (≈ 0.89 µM)
35 | C=C[C@]1(C)C[C@@H](OC(=O)CSc2nc(OC(=O)c3c(Cl)cc(Cl)cc3Cl)cs2)[C@]2(C)[C@H](C)CC[C@]3(CCC(=O)[C@H]32)[C@@H](C)[C@@H]1O | 16 µg/mL (≈ 22.8 µM)

tested on: Streptococcus agalactiae; experiment: Antibacterial activity against Streptococcus agalactiae assessed as inhibition of visible bacterial growth incubated for 24 hrs by CLSI based broth microdilution method; format: functional

Row | Structure (SMILES) | MIC
36 | C=C[C@]1(C)C[C@@H](OC(=O)CSc2nc(OC(=O)c3ccc(Cl)cc3Cl)cs2)[C@]2(C)[C@H](C)CC[C@]3(CCC(=O)[C@H]32)[C@@H](C)[C@@H]1O | 0.063 µg/mL (≈ 0.0945 µM)
37 | C=C[C@]1(C)C[C@@H](OC(=O)CSc2nc(OC(=O)C(CC)CCCC)cs2)[C@]2(C)[C@H](C)CC[C@]3(CCC(=O)[C@H]32)[C@@H](C)[C@@H]1O (some centres not stated) | 0.25 µg/mL (≈ 0.403 µM)
38 | C=C[C@]1(C)C[C@@H](OC(=O)CSc2nc(OC(=O)c3ccccc3C)cs2)[C@]2(C)[C@H](C)CC[C@]3(CCC(=O)[C@H]32)[C@@H](C)[C@@H]1O | 0.063 µg/mL (≈ 0.103 µM)
39 | C=C[C@]1(C)C[C@@H](OC(=O)CSc2nc(OC(=O)CC(C)(C)C)cs2)[C@]2(C)[C@H](C)CC[C@]3(CCC(=O)[C@H]32)[C@@H](C)[C@@H]1O | 0.125 µg/mL (≈ 0.211 µM)
40 | C=C[C@]1(C)C[C@@H](OC(=O)CSc2nc(OC(=O)C3CCCC3)cs2)[C@]2(C)[C@H](C)CC[C@]3(CCC(=O)[C@H]32)[C@@H](C)[C@@H]1O | 0.25 µg/mL (≈ 0.424 µM)
41 | C=C[C@]1(C)C[C@@H](OC(=O)CSc2nc(OC(=O)C3CC3)cs2)[C@]2(C)[C@H](C)CC[C@]3(CCC(=O)[C@H]32)[C@@H](C)[C@@H]1O | 0.063 µg/mL (≈ 0.112 µM)
42 | C=C[C@]1(C)C[C@@H](OC(=O)CSc2nc(OC(=O)c3c(Cl)cc(Cl)cc3Cl)cs2)[C@]2(C)[C@H](C)CC[C@]3(CCC(=O)[C@H]32)[C@@H](C)[C@@H]1O | 0.5 µg/mL (≈ 0.713 µM)
